Where two headings read alike, the source gives them in different places.
What was measured:
[1] = target: T1, MIF-CD74 Binding (biotin-labeled recombinant human MIF, recombinant human MIF receptor CD74 ectodomain) (Homo sapiens, UniProt P14174); test: MIF-CD74 binding (capture) assay; parameters: concentration of C74 % MaxInhib (number after @): unit not given here; settings: for CD74 % MaxInhib / C74 % MaxInhib: number before @; for concentration of C74 % MaxInhib (number after @) / C74 % MaxInhib: Table 18
T1 sequence (P14174 2-115 limits assumed): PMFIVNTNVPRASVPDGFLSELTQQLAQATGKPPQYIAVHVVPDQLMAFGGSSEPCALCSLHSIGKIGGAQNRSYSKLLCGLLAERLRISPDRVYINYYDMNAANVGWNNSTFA

[2] = target: T2, Human MIF (MIF tautomerase activity) (Homo sapiens, UniProt P14174); test: HPP tautomerase assay; assay type: biochemical; settings: for IC50: read-out: HPP IC50
T2 construct: made in house
T2 sequence (P14174 2-115 limits assumed): T1 sequence (P14174 2-115 limits assumed)
Description: The HPP assay used was adapted to the microtiter plate format. […] Dilutions of the enzyme were prepared in 50 mM sodium phosphate buffer, 1 mM EDTA, pH 6.5. HPP was obtained from Aldrich. A stock solution of 60 mM HPP in ethanol is prepared and kept for maximally 4 hours on ice. The working solution (600 μM) of the substrate was prepared by diluting an aliquot of the stock solution with 50 mM sodium phosphate buffer, 1 mM EDTA, pH 6.5. […] Inhibitor and enzyme solutions were pipetted manually using an Eppendorf 12-channel pipette. Addition of substrate to start the reaction was performed with an Igel 96 pipetting station (OpalJena, Jena, Germany), which allows simultaneous addition of fluid to all 96 wells of the plates. Optical density (OD) was determined using a SPECTRAmax 250 reader (Molecular Devices). The reader was operated with the SoftmaxPro 2.6.1 software. Assay: Three wells of the microtiter plates were filled with buffer only, to allow for blanking. […] The last step was performed using the 96-channel pipetting device. The plate was then immediately (i.e. within a few seconds) transferred manually to the SPECTRAmax 250 reader and the optical density was determined (310 nm). From the data obtained, IC50 values were calculated using Excel® and XLfit® software.

O=C(c1cc2ccccc2o1)N1CCc2cc(F)ccc21 [MIF-096]
concentration of CD74 % MaxInhib (number after @) ([1]; Table 14): 1.87 µM | CD74 % MaxInhib ([1]; Table 14): 19% | IC50 ([2]; Table 14): 1360 µM

COc1cccc(-n2sc3ccc(F)cc3c2=O)c1 [MIF-144]
IC50 ([2]; Table 6, data cell c7): 2.75 µM

COc1cccc(-n2sc3cc(F)ccc3c2=O)c1 [Compound 28]
IC50 ([2]; Table 3): 25 µM | IC50 ([2]; Table 6, data cell c7): 25 µM

Cc1ccc2c(c1)CCN2C(=O)c1cc2ccccc2o1 [MIF-094]
concentration of CD74 % MaxInhib (number after @) ([1]; Table 14): 0.95 µM | CD74 % MaxInhib ([1]; Table 14): 33% | IC50 ([2]; Table 14): 760 µM

COc1cccc(C(=O)c2cn(-c3ccc(O)cc3)nn2)c1 [MIF-076]
concentration of C74 % MaxInhib (number after @) [1]: 0.0078 | C74 % MaxInhib [1]: 12% | IC50 ([2]; Table 18): 790 µM

Clc1ccc(-c2nc3ccc(Cl)cc3o2)cc1 [MIF-121]
concentration of CD74 % MaxInhib (number after @) ([1]; Table 7): 0.078 µM | CD74 % MaxInhib ([1]; Table 7, data cell c7): 27% | HPP % MaxInhib ([2]; Table 7, data cell c6, number before @): 43%

O=c1c2ccc(F)cc2sn1-c1ccc(Cl)cc1 [Compound 26]
Capture IC50 ([1]; Table 3): agonist | CD74 IC50 ([1]; Table 6, data cell c9): agonist | IC50 ([2]; Table 3): 4.2 µM | IC50 ([2]; Table 6, data cell c7): 4.2 µM

N#Cc1ccc(-n2sc3cc(F)ccc3c2=O)cc1 [MIF-133]
concentration of CD74 % MaxInhib (number after @) ([1]; Table 6): 0.078 µM | IC50 ([2]; Table 6, data cell c7): 6.4 µM

Oc1ccc(Cc2cn(-c3ccc(O)cc3)nn2)cc1 [MIF-087]
concentration of C74 % MaxInhib (number after @) [1]: 0.078 | C74 % MaxInhib [1]: 23% | IC50 ([2]; Table 18): 690 µM

Cc1ccc2c(c1)N(C(=O)c1cc3ccccc3o1)CC2 [MIF-095]
concentration of CD74 % MaxInhib (number after @) ([1]; Table 14): 0.039 µM | CD74 % MaxInhib ([1]; Table 14): 33% | IC50 ([2]; Table 14): 910 µM

O=C(c1cc2cc(F)ccc2o1)N1CCc2ccccc21 [MIF-089]
concentration of CD74 % MaxInhib (number after @) ([1]; Table 14): 0.12 µM | CD74 % MaxInhib ([1]; Table 14): 30% | concentration of HPP Max Inhib (number after @) ([2]; Table 14): 1 µM | HPP Max Inhib ([2]; Table 14, number before @): 19%

Oc1ccc(-n2cc(-c3cncc4ccccc34)nn2)cc1 [MIF-021]
IC50 ([1]; Table 21, column beside HPP IC50): Agonist | HPP IC50 ([2]; Table 21): agonist

O=C(c1cc2ccccc2o1)c1cc2ccccc2o1 [Compound 20, bisbenzofuran-2-yl methanone]
concentration of CD74 % MaxInhib (number after @) ([1]; Table 13): 0.058 µM

CN(C)C(=O)c1nc2ccccc2n1Cc1ccccc1 [MIF-063]
concentration of CD74 % MaxInhib (number after @) ([1]; Table 5): 1.87 µM | CD74 % MaxInhib ([1]; Table 5): 27% | HPP Max Inhib ([2]; Table 5): 0%

O=C(c1cc2ccccc2o1)c1cc2cc(F)ccc2o1 [MIF-073]
concentration of CD74 % MaxInhib (number after @) ([1]; Table 13): 0.12 µM | CD74 % MaxInhib ([1]; Table 13): 17% | concentration of HPP Max Inhib (number after @) ([2]; Table 13): 700 µM | HPP Max Inhib ([2]; Table 13, data cell c5, number before @): 33%

Oc1ccc(-n2cc(Cc3ccccc3)nn2)cc1F [MIF-069]
concentration of C74 % MaxInhib (number after @) [1]: 0.0078 | C74 % MaxInhib [1]: 14% | IC50 ([2]; Table 18): 760 µM

COc1ccc2cc(C(=O)N3CCc4ccccc43)oc2c1 [MIF-083]
concentration of CD74 % MaxInhib (number after @) ([1]; Table 14): 0.078 µM | CD74 % MaxInhib ([1]; Table 14): 12% | concentration of HPP Max Inhib (number after @) ([2]; Table 14): 3 µM | HPP Max Inhib ([2]; Table 14, number before @): 33%

COc1ccc(-n2sc3cc(F)ccc3c2=O)cc1 [Compound 27]
IC50 ([2]; Table 3): 6.2 µM

O=c1c2cc(C(F)(F)F)ccc2sn1-c1ccc(Cl)cc1 [Compound 35]
Capture % Max. Inhib. ([1]; Table 3): 12% | CD74 % MaxInhib ([1]; Table 6, data cell c8): 12%

COc1cccc(Cc2cn(-c3ccc(O)cc3)nn2)c1 [MIF-074]
concentration of C74 % MaxInhib (number after @) [1]: 0.24 | C74 % MaxInhib [1]: 8% | concentration of HPP Max Inhib (number after @) ([2]; Table 18): 1000 | HPP Max Inhib ([2]; Table 18, number before @): 40%

COc1ccc(Cc2cn(-c3ccc(O)cc3)nn2)cc1 [MIF-086]
concentration of C74 % MaxInhib (number after @) [1]: 0.078 | C74 % MaxInhib [1]: 36% | IC50 ([2]; Table 18): 65 µM

c1ccc(-c2nc3ccccc3s2)cc1 [MIF-137]
concentration of CD74 % MaxInhib (number after @) ([1]; Table 8): 0.078 µM | HPP IC50 ([2]; Table 8): agonist

O=c1c2cc(F)ccc2sn1-c1ccc(Cl)cc1 [Compound 30]
Capture % Max. Inhib. ([1]; Table 3): 7% | CD74 % MaxInhib ([1]; Table 6, data cell c8): 7%

Oc1ccc(-c2cn(Cc3ccccn3)nn2)cc1 [MIF-035]
IC50 ([1]; Table 20, read-out: CD74 IC50): 300 µM

O=C(O)COc1ccc2occ(C(=O)c3ccccc3)c2c1 [Compound 23]
IC50 ([1]; Table 2, read-out: MIF-CD74 IC50): 1500 µM | IC50 ([1]; Table 5, read-out: CD74 IC50): 1500 µM | IC50 ([1]; Table 16, read-out: CD74 IC50): 1500 µM

O=c1c2ccc(F)cc2sn1-c1cccc(CO)c1 [Compound 29]
Capture % Max. Inhib. ([1]; Table 3): 8% | CD74 % MaxInhib ([1]; Table 6, data cell c8): 8%

O=c1c2cc(F)ccc2sn1-c1cccc(O)c1 [Compound 32]
Capture % Max. Inhib. ([1]; Table 3): 13% | CD74 % MaxInhib ([1]; Table 6, data cell c8): 13% | IC50 ([2]; Table 3): 5.9 µM | IC50 ([2]; Table 6, data cell c7): 5.9 µM

O=c1c2cc(Br)ccc2sn1-c1ccc(Cl)cc1 [Compound 39]
IC50 ([2]; Table 3): 7.9 µM | IC50 ([2]; Table 6, data cell c7): 7.9 µM

Fc1ccc2cn(-c3ccc(Cl)cc3)nc2c1 [MIF-131]
concentration of CD74 % MaxInhib (number after @) ([1]; Table 11): 0.12 µM | CD74 % MaxInhib ([1]; Table 11): 29% | HPP % MaxInhib ([2]; Table 11, number before @): 30%
